According to PMC5681660, “Reduced hepatitis B and D viral entry using clinically applied drugs as novel inhibitors of the bile acid transporter NTCP” (Scientific Reports, 2017):
Counter-ions that a name gives are not always drawn. Like-named read-outs stand apart in the source and are kept apart here. One block for each compound: values may come before it.

What was measured:
human NTCP [1] = target: T1, human NTCP (Homo sapiens, UniProt Q14973); experiment: Screening fluorescent competitive Myrcludex B-FITC binding assay (96-well, 10 µM drug)
T1 sequence (Q14973 1-349): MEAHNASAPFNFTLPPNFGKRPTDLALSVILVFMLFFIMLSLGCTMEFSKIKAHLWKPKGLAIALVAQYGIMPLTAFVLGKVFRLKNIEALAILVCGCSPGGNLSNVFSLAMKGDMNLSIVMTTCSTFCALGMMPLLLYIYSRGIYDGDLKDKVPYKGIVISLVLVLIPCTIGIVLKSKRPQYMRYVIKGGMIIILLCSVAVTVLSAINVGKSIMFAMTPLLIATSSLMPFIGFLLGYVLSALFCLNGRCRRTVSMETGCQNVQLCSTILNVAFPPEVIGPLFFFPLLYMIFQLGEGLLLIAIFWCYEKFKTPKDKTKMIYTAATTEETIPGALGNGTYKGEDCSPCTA

human NTCP [2] = target: T1, human NTCP; experiment: Screening taurocholate uptake assay (96-well, [14C]taurocholate, 10 µM drug)
[3] = screen, 10 µM drug, Myrcludex B-FITC binding
[4] = combined ranking from functional and binding screening assays
[5] = screen, 10 µM drug, taurocholate uptake
[6] = Prestwick library screen, Myrcludex B-FITC binding, 10 µM drug
[7] = Prestwick library screen, taurocholate uptake, 10 µM drug
[8] = ranking score beside the functional and binding assay B-scores of the screen
[9] = Prestwick library screen, 10 µM drug, B-score of Myrcludex B-FITC binding
[10] = Prestwick library screen, 10 µM drug, B-score of taurocholate uptake
[11] = combined ranking from functional and binding assay B-scores

SMILES: CC(C)C(=O)Nc1ccc([N+](=O)[O-])c(C(F)(F)F)c1 [Flutamide]
B-score binding assay (human NTCP [1]; [3]): 0.039 | Ranking score (human NTCP [2]; [4]): 383.15 | B-score functional assay (human NTCP [2]; [5]): -1.233

SMILES: Cc1ccccc1OCC(O)CO (stereo not drawn) [Mephenesin]
B-score binding assay (human NTCP [1]; [6]): 1.192 | B-score functional assay (human NTCP [2]; [7]): -0.317 | Ranking score (human NTCP [2]; [8]): 689.632

SMILES: CCN(CC)CCOc1ccc(C(=C(Cl)c2ccccc2)c2ccccc2)cc1.O=C(O)CC(O)(CC(=O)O)C(=O)O [Clomiphene citrate (Z,E)]
B-score binding assay (human NTCP [1]; [6]): -0.291 | B-score functional assay (human NTCP [2]; [7]): 0.862 | Ranking score (human NTCP [2]; [8]): 678.964

SMILES: Cl.Nc1c(Br)cc(Br)cc1CNC1CCC(O)CC1 (stereo not drawn) [Ambroxol hydrochloride]
B-score binding assay (human NTCP [1]; [9]): 1.513 | B-score functional assay (human NTCP [2]; [10]): 0.006 | Ranking score (human NTCP [2]; [11]): 860.528

SMILES: CNCCC=C1c2ccccc2CCc2ccccc21 [Nortriptyline hydrochloride]
B-score binding assay (human NTCP [1]; [9]): 1.407 | B-score functional assay (human NTCP [2]; [10]): 1.081 | Ranking score (human NTCP [2]; [11]): 1101.36

SMILES: CC(O)(P(=O)([O-])O)P(=O)([O-])O.[Na+].[Na+] [Etidronic acid, disodium salt]
B-score binding assay (human NTCP [1]; [6]): 0.806 | B-score functional assay (human NTCP [2]; [7]): -0.023 | Ranking score (human NTCP [2]; [8]): 776.081

SMILES: Clc1ccc(C(c2ccccc2Cl)C(Cl)Cl)cc1 (stereo not drawn) [Mitotane]
B-score binding assay (human NTCP [1]; [3]): 2.009 | Ranking score (human NTCP [2]; [4]): 352.681 | B-score functional assay (human NTCP [2]; [5]): -2.371

SMILES: O=C1c2c(O)ccc(O)c2C(=O)c2c(NCCNCCO)ccc(NCCNCCO)c21 [Mitoxantrone dihydrochloride]
B-score binding assay (human NTCP [1]; [6]): -0.161 | B-score functional assay (human NTCP [2]; [7]): 4.449 | Ranking score (human NTCP [2]; [8]): 807.326

SMILES: CN1C[C@H](C(=O)N[C@]2(C)O[C@@]3(O)[C@@H]4CCCN4C(=O)[C@H](Cc4ccccc4)N3C2=O)C[C@@H]2c3cccc4[nH]cc(c34)C[C@H]21.CN1C[C@H](C(=O)N[C@]2(C)O[C@@]3(O)[C@@H]4CCCN4C(=O)[C@H](Cc4ccccc4)N3C2=O)C[C@@H]2c3cccc4[nH]cc(c34)C[C@H]21.O=C(O)C(O)C(O)C(=O)O [Dihydroergotamine tartrate]
B-score binding assay (human NTCP [1]; [3]): -1.57 | Ranking score (human NTCP [2]; [4]): 379.284 | B-score functional assay (human NTCP [2]; [5]): 0.679

SMILES: CC(C)NCC(O)c1ccc(O)c(O)c1.Cl (single isomer, unassigned; (-)) [(-)-Isoproterenol hydrochloride]
B-score binding assay (human NTCP [1]; [9]): 0.852 | B-score functional assay (human NTCP [2]; [10]): 0.061 | Ranking score (human NTCP [2]; [11]): 845.999

SMILES: CCC1=C[C@@H]2CN3CCc4c([nH]c5ccccc45)[C@@](C(=O)OC)(C2)[C@@H]13 [Catharanthine]
B-score binding assay (human NTCP [1]; [3]): -0.047 | Ranking score (human NTCP [2]; [4]): 448.328 | B-score functional assay (human NTCP [2]; [5]): -0.613

SMILES: CC[C@H]1OC(=O)[C@H](C)[C@@H](O[C@H]2C[C@@](C)(OC)[C@@H](O)[C@H](C)O2)[C@H](C)[C@@H](O[C@@H]2O[C@H](C)C[C@H](N(C)C)[C@H]2O)[C@](C)(OC)C[C@@H](C)C(=O)[C@H](C)[C@@H](O)[C@]1(C)O [Clarithromycin]
B-score binding assay (human NTCP [1]; [3]): 0.501 | Ranking score (human NTCP [2]; [4]): 370.485 | B-score functional assay (human NTCP [2]; [5]): -1.781

SMILES: O=C(CCCCC(=O)Nc1c(I)cc(I)c(C(=O)O)c1I)Nc1c(I)cc(I)c(C(=O)O)c1I [Iodipamide]
B-score binding assay (human NTCP [1]; [6]): -0.069 | B-score functional assay (human NTCP [2]; [7]): 2.519 | Ranking score (human NTCP [2]; [8]): 831.882

SMILES: OCCN(CCO)c1nc(N2CCCCC2)c2nc(N(CCO)CCO)nc(N3CCCCC3)c2n1 [Dipyridamole]
B-score binding assay (human NTCP [1]; [3]): -0.011 | Ranking score (human NTCP [2]; [4]): 317.643 | B-score functional assay (human NTCP [2]; [5]): -1.651

SMILES: Oc1c(Cl)cc(Cl)c(Cl)c1Cc1c(O)c(Cl)cc(Cl)c1Cl [Hexachlorophene]
B-score binding assay (human NTCP [1]): 1.48 | B-score functional assay (human NTCP [2]): -8.47 | Ranking score (human NTCP [2]): 82.4136

SMILES: COc1ccc(-c2cc(=S)ss2)cc1 [Anethole-trithione]
B-score binding assay (human NTCP [1]; [6]): -0.048 | B-score functional assay (human NTCP [2]; [7]): 0.437 | Ranking score (human NTCP [2]; [8]): 719.937

SMILES: Cl.N[C@@H]1CCCCN(c2c(F)cc3c(=O)c(C(=O)O)cn(C4CC4)c3c2Cl)C1 [Besifloxacin hydrochloride]
B-score binding assay (human NTCP [1]; [9]): 1.112 | B-score functional assay (human NTCP [2]; [10]): 1.274 | Ranking score (human NTCP [2]; [11]): 1087.71

SMILES: CC(CCc1ccc(O)cc1)NCCc1ccc(O)c(O)c1 (stereo not drawn) [Dobutamine hydrochloride]
B-score binding assay (human NTCP [1]; [6]): 1.051 | B-score functional assay (human NTCP [2]; [7]): -0.038 | Ranking score (human NTCP [2]; [8]): 789.916

SMILES: NC(=O)CN1CCCC1=O [Piracetam]
B-score binding assay (human NTCP [1]; [6]): -0.345 | B-score functional assay (human NTCP [2]; [7]): 0.881 | Ranking score (human NTCP [2]; [8]): 661.843

SMILES: CN[C@@H]1C[C@@H](c2ccc(Cl)c(Cl)c2)c2ccccc21 [Indatraline hydrochloride]
B-score binding assay (human NTCP [1]; [6]): 0.336 | B-score functional assay (human NTCP [2]; [7]): 0.152 | Ranking score (human NTCP [2]; [8]): 814.16

SMILES: CC(C(O)c1ccc(O)cc1)N1CCC(Cc2ccccc2)CC1.CC(C(O)c1ccc(O)cc1)N1CCC(Cc2ccccc2)CC1.O=C(O)C(O)C(O)C(=O)O (stereo not drawn) [Ifenprodil tartrate]
B-score binding assay (human NTCP [1]; [6]): -0.263 | B-score functional assay (human NTCP [2]; [7]): 1.465 | Ranking score (human NTCP [2]; [8]): 727.635

SMILES: CN(CCCCCCCCCCN(C)C(=O)Oc1cccc([N+](C)(C)C)c1)C(=O)Oc1cccc([N+](C)(C)C)c1 [Demecarium bromide]
B-score binding assay (human NTCP [1]; [9]): 0.623 | B-score functional assay (human NTCP [2]; [10]): 0.13 | Ranking score (human NTCP [2]; [11]): 853.475

SMILES: O=S(=O)(O)c1cc(O)ccc1O [Ethamsylate]
B-score binding assay (human NTCP [1]; [9]): 1.4 | B-score functional assay (human NTCP [2]; [10]): 0.032 | Ranking score (human NTCP [2]; [11]): 873.696

Continued, values first:

B-score binding assay (human NTCP [1]; [6]): 0.117 | B-score functional assay (human NTCP [2]; [7]): 0.369 | Ranking score (human NTCP [2]; [8]): 806.918
SMILES: Nc1nc(=O)c2c([nH]1)NCC(CNc1ccc(C(=O)N[C@@H](CCC(=O)[O-])C(=O)[O-])cc1)N2C=O.[Ca+2] (stereo partly drawn) [Folinic acid calcium salt]

B-score binding assay (human NTCP [1]; [3]): 0.048 | Ranking score (human NTCP [2]; [4]): 288.205 | B-score functional assay (human NTCP [2]; [5]): -2.152
SMILES: CC(C(=O)O)c1ccc2c(c1)[nH]c1ccc(Cl)cc12 (stereo not drawn) [Carprofen]

B-score binding assay (human NTCP [1]; [3]): 0.475 | Ranking score (human NTCP [2]; [4]): 402.269 | B-score functional assay (human NTCP [2]; [5]): -1.501
SMILES: O=C(O)Cc1sc(-c2ccccc2)nc1-c1ccc(Cl)cc1 [Fentiazac]

B-score binding assay (human NTCP [1]; [9]): 0.089 | B-score functional assay (human NTCP [2]; [10]): 0.753 | Ranking score (human NTCP [2]; [11]): 857.349
SMILES: CN1CCN(CC(=O)N2c3ccccc3C(=O)Nc3cccnc32)CC1 [Pirenzepine dihydrochloride]

B-score binding assay (human NTCP [1]; [3]): 0.997 | Ranking score (human NTCP [2]; [4]): 412.592 | B-score functional assay (human NTCP [2]; [5]): -1.639
SMILES: Cc1cnc(C(=O)NCCc2ccc(S(=O)(=O)NC(=O)NC3CCCCC3)cc2)cn1 [Glipizide]

B-score binding assay (human NTCP [1]; [6]): 1.008 | B-score functional assay (human NTCP [2]; [7]): -0.197 | Ranking score (human NTCP [2]; [8]): 710.601
SMILES: CC(C)(C)NC(=O)[C@@H]1CN(Cc2cccnc2)CCN1C[C@@H](O)C[C@@H](Cc1ccccc1)C(=O)N[C@H]1c2ccccc2C[C@H]1O [Indinavir sulfate]

B-score binding assay (human NTCP [1]; [9]): 1.318 | B-score functional assay (human NTCP [2]; [10]): 1.245 | Ranking score (human NTCP [2]; [11]): 1106.99
SMILES: CN(C)CCC(c1ccc(Cl)cc1)c1ccccn1 (stereo not drawn) [Chlorpheniramine maleate]

B-score binding assay (human NTCP [1]; [6]): -0.416 | B-score functional assay (human NTCP [2]; [7]): 2.742 | Ranking score (human NTCP [2]; [8]): 706.929
SMILES: COc1ccc(C(=O)c2ccccc2)c(O)c1 [Oxybenzone]

B-score binding assay (human NTCP [1]; [6]): 0.508 | B-score functional assay (human NTCP [2]; [7]): 0.032 | Ranking score (human NTCP [2]; [8]): 789.959
SMILES: NC(=O)N1c2ccccc2CC(=O)c2ccccc21 [Oxcarbazepine]

B-score binding assay (human NTCP [1]; [9]): 0.273 | B-score functional assay (human NTCP [2]; [10]): 0.659 | Ranking score (human NTCP [2]; [11]): 893.639
SMILES: Nc1ccc(S(=O)(=O)[N-]c2cnc3ccccc3n2)cc1.[Na+] [Sulfaquinoxaline sodium salt]
